Earlier results in publication PMC6940698.

Experiment: not told

For `O=C(O)c1cc(S(=O)(=O)O)ccc1O`, the “log partition benzene / water” value is listed as 0.34 ratio, the “log partition toluene / water” value is listed as 0.26 ratio and the “log partition xylene / water” value is listed as 0.23 ratio.
